Measured values reported in patent US7875638B2, “Synthesis of epothilones, intermediates thereto, analogues and uses thereof” (Sloan-Kettering Institute for Cancer Research, priority 2002, dated 2011).

Test system: RPMI-8226 (human multiple myeloma cell line)
Assay: Global gene expression (Affymetrix chip AU133 2.0)
Assay type: cell-based
[1] = 18 hr gene difference, Fludelone vs dEpoB treated cells

C/C(=C\c1csc(C)n1)[C@@H]1C/C=C(/C(F)(F)F)C/C=C/[C@H](C)[C@H](O)[C@@H](C)C(=O)C(C)(C)[C@@H](O)CC(=O)O1 [Compound 29, 26-trifluoro-trans-9,10-dehydro-12,13-desoxyepothilone B]
Fold change in expression, AKAP9 (18 h): +2.00 fold
Fold change in expression, APBB2 (18 h): +2.00 fold
Fold change in expression, APG16L (18 h): +2.00 fold
Fold change in expression, APRIN (18 h): +2.00 fold
Fold change in expression, BAX (18 h): +2.00 fold
Fold change in expression, CCL3 (18 h): +3.48 fold
Fold change in expression, CCT8 (18 h): +2.30 fold
Fold change in expression, CD72 (18 h): +2.30 fold
Fold change in expression, CEB1 (18 h): −2.30 fold
Fold change in expression, CLorf29 (18 h): −6.06 fold
Fold change in expression, Cyclin E2 (18 h): −2.64 fold
Fold change in expression, DNAJB1 (18 h): +2.30 fold
Fold change in expression, DUSP6 (18 h): −2.14 fold
Fold change in expression, EIFA1 (18 h): +2.30 fold
Fold change in expression, ETS2 (18 h): +2.46 fold
Fold change in expression, F11 (18 h): −4.00 fold
Fold change in expression, FBXO5 (18 h): −2.30 fold
Fold change in expression, FLJ20045 (18 h): −2.46 fold
Fold change in expression, FLJ20130 (18 h): −5.66 fold
Fold change in expression, FLJ20241 (18 h): +3.73 fold
Fold change in expression, Fibrillin 2 (18 h): +12.3 fold
Fold change in expression, GA17 (18 h): +2.64 fold
Fold change in expression, GTF2H2 (18 h): +3.03 fold
Fold change in expression, HDAC9 (18 h): −2.00 fold
Fold change in expression, HNRPD (18 h): −3.25 fold
Fold change in expression, HSPA1A (18 h): +2.14 fold
Fold change in expression, HSPA1B (18 h): +2.00 fold
Fold change in expression, JUN (18 h): +2.64 fold
Fold change in expression, KIAA0191 protein (18 h): +2.14 fold
Fold change in expression, KIAA1025 protein (18 h): +3.25 fold
Fold change in expression, MADH1 (18 h): +2.00 fold
Fold change in expression, MARS (18 h): −2.00 fold
Fold change in expression, NRTN (18 h): −2.3 fold
Fold change in expression, PCNX (18 h): +3.48 fold
Fold change in expression, PHC3 (18 h): +2.83 fold
Fold change in expression, PKD1 (18 h): +7.46 fold
Fold change in expression, POU4F1 (18 h): −2.14 fold
Fold change in expression, PRKCBP1 (18 h): +2.64 fold
Fold change in expression, PRKDC (18 h): +21.11 fold
Fold change in expression, REPS1 (18 h): +9.85 fold
Fold change in expression, RPL23 (18 h): +2.14 fold
Fold change in expression, SEC24D (18 h): +2.64 fold
Fold change in expression, SEMA3D (18 h): +2.83 fold
Fold change in expression, SERPINH1 (18 h): +2.00 fold
Fold change in expression, SLC13A1 (18 h): +3.03 fold
Fold change in expression, SMA3 (18 h): +2.46 fold
Fold change in expression, TCS2 (18 h): +2.30 fold
Fold change in expression, TMEM1 (18 h): +2.14 fold
Fold change in expression, TRA2A (18 h): +3.03 fold
Fold change in expression, TRIO (18 h): +4.29 fold
Fold change in expression, VEZATIN (18 h): +2.00 fold
Fold change in expression, ZF (HCF-binding transcription factor) (18 h): −6.50 fold
Fold change in expression, ZFY (18 h): +2.14 fold
Fold change, CEB1 (18 h): −2.00 fold
Fold change, DUSP4 (18 h): −2.14 fold
Fold change, HMT-1 (18 h): +11.3 fold
Fold change, IFIT1 (18 h): −2.00 fold
Fold change, OAS2 (18 h): −2.00 fold
Fold change, PLSCR1 (18 h): −2.00 fold
Fold change, PPAP2C (18 h): −2.14 fold
Fold change, TRIM22 (18 h): −2.00 fold
Fold change, GIP3 [1]: −5.28 fold
Fold change, IFI 27 [1]: −5.28 fold
Fold change, IFITM1 [1]: −3.25 fold
Fold change, MX1 [1]: −2.30 fold
Fold change in expression, G1P3 (18 hrs, ×10 IC50 dose, vs control): −3.73 fold
